Measured values as given in patent US20250136578A1 (Kolm Therapeutics Inc., priority 2023, published 2025).
Like-named read-outs stand apart in the source and are kept apart here.

Columns and labels:
AR / CBP ternary complex = AR / CBP ternary complex (Homo sapiens, UniProt P10275+Q92793); assay: Ternary complex formation assay (sandwich ELISA, AR capture, CBP antibody detection) in VCaP cell lysates; assay type: cell-based
Summary of the method: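 Sandwich ELISA: plates were coated with anti-AR antibody (AR441) and given lysates of VCaP cells treated 1.5 h with bifunctional compound in charcoal-stripped serum. Co-captured CBP or p300 was probed with rabbit mAbs and HRP secondary. Chemifluorescent signal (ex 570/em 585) was read at 0, 5 and 15 min.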

VCaP cells = assay: VCaP growth inhibition assay (CTG); assay type: cell-based; settings: Homo sapiens, 216 h, 30 pM R1881, 9 days
Summary of the method: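 Growth was measured by CTG luminescence after a 9-day exposure of VCaP cells to compound (final 10 fM–100 nM, fivefold steps) in the presence of 30 pM final R1881, in phenol red-free DMEM/5% CSS. IC50 values were derived by nonlinear 4-parameter regression of RLU against concentration.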

[1] = read-out: Average Ternary Complex, treated 1.5 hours, rabbit CBP or p300 antibody detection
[2] = treated 1.5 hours, rabbit CBP or p300 antibody detection, average, read-out: Average Ternary Complex

Chain of AR / CBP ternary complex (P10275 whole entry): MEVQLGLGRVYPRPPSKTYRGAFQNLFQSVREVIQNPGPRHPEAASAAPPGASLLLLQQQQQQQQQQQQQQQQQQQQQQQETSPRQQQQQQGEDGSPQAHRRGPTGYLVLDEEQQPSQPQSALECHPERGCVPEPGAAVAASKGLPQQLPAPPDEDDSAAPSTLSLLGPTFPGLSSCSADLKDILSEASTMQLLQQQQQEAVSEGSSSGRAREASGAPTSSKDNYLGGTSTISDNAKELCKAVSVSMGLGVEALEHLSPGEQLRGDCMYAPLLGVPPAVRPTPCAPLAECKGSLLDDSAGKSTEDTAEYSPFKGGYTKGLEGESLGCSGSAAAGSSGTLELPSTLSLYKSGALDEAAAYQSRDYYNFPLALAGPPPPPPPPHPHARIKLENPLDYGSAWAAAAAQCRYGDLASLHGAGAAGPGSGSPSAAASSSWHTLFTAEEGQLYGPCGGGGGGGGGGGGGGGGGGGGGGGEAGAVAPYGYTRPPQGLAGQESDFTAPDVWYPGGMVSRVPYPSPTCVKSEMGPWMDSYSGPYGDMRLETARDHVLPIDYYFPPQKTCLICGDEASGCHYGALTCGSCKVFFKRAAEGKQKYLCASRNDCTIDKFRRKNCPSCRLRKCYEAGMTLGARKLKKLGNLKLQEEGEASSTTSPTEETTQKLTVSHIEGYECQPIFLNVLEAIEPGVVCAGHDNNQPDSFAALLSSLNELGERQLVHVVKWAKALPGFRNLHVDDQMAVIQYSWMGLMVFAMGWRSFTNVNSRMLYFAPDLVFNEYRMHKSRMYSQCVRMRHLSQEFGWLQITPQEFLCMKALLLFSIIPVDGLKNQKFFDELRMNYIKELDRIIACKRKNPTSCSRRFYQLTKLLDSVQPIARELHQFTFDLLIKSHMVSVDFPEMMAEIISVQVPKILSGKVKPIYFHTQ
Chain of AR / CBP ternary complex (Q92793 2-2442): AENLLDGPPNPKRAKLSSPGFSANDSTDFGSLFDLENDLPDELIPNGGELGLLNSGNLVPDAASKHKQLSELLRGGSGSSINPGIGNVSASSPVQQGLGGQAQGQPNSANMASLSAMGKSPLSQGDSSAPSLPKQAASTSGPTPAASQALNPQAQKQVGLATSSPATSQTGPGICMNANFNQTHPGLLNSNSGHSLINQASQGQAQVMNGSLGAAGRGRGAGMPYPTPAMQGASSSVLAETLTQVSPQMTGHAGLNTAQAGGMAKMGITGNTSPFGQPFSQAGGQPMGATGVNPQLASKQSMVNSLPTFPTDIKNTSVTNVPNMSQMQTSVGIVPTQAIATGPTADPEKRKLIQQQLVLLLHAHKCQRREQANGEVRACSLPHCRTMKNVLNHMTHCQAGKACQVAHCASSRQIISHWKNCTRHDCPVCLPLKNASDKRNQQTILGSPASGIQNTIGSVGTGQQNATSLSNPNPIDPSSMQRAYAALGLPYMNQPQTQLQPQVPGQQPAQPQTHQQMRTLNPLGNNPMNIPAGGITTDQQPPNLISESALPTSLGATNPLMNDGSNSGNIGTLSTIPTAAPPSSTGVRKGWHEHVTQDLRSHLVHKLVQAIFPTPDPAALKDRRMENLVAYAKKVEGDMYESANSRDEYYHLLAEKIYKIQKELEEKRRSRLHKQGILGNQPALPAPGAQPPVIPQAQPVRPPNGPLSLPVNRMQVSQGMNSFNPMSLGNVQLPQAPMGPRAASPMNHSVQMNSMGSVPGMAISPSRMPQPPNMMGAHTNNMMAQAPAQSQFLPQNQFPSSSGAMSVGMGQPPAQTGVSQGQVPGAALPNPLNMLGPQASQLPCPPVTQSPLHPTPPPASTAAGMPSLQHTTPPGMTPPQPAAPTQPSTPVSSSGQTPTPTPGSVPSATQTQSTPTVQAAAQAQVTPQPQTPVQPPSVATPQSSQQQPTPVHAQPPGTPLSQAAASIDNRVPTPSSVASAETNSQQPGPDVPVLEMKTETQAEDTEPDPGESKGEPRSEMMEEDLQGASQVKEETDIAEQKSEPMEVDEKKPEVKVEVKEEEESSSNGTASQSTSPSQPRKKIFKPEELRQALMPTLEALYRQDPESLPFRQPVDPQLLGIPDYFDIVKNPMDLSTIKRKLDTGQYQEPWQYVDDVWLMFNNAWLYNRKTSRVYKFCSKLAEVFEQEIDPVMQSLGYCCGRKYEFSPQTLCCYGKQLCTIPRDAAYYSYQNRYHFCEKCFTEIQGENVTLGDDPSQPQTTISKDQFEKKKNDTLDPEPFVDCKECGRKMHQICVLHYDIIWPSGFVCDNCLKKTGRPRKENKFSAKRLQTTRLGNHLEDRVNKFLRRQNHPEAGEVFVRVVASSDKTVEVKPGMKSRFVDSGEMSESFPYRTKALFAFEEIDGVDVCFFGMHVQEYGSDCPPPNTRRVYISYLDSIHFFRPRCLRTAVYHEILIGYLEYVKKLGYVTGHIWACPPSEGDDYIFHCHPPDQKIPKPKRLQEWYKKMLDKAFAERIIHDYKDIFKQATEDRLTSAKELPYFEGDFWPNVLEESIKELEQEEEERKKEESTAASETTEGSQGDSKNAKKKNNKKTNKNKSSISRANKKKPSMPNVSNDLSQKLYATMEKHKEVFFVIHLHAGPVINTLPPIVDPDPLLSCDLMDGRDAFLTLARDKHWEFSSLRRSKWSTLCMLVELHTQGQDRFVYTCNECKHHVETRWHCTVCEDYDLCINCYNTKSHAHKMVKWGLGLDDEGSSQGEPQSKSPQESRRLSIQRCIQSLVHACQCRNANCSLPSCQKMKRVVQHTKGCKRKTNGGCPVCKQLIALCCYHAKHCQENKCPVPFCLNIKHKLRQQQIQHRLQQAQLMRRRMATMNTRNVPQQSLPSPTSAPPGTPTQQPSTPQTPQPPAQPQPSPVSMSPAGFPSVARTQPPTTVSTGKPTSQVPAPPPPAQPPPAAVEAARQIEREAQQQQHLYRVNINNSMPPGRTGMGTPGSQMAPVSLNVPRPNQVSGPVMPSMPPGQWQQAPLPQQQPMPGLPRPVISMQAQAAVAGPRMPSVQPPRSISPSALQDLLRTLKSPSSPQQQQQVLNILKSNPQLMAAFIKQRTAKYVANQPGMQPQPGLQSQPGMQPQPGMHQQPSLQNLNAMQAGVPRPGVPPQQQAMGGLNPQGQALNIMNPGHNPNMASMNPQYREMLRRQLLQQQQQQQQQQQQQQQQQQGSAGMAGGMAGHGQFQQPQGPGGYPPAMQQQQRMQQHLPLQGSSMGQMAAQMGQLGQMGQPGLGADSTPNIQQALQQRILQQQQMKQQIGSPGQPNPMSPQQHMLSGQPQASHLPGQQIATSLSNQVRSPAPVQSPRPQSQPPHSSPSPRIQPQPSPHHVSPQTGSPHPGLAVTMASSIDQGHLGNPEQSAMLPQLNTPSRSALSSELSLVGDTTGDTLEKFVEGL

| SMILES | IC50 (VCaP cells) [nM] | EC50 (AR / CBP ternary complex; [2]) [nM] | EC50 (AR / CBP ternary complex; [1]) [nM] |
| --- | --- | --- | --- |
| CC(=O)N1CCc2c(c(N3CCCc4cc(-c5cnn(C)c5)c(C(F)F)cc43)nn2[C@@H]2[C@@H]3C[C@H]2CN(CC2CCN(c4ccc(C(=O)N[C@H]5CC[C@H](Oc6ccc(C#N)c(Cl)c6)CC5)nn4)CC2)C3)C1 [Compound 149, N-[4-(3-chloro-4-cyano-phenoxy)cyclohexyl]-6-[4-[[rac-(1S,5R)-6-[5-acetyl-3-[7-(difluoromethyl)-6-(1-methylpyrazol-4-yl)-3,4-dihydro-2H-quinolin-1-yl]-6,7-dihydro-4H-pyrazolo[4,3-c]pyridin-1-yl]-3-azabicyclo[3.1.1]heptan-3-yl]methyl]-1-piperidyl]pyridazine-3-carboxamide] | 0.1 to 1 | – | < 1 |
| CC(=O)N1CCc2c(c(-c3cccc4cc(-c5cnn(CCOC6CC7(C6)CN(c6ccc(C(=O)N[C@H]8CC[C@H](Oc9ccc(C#N)c(Cl)c9)CC8)nn6)C7)c5)ncc34)nn2C)C1 [Compound 64, 6-[6-[2-[4-[8-(5-acetyl-1-methyl-6,7-dihydro-4H-pyrazolo[4,3-c]pyridin-3-yl)-3-isoquinolyl]pyrazol-1-yl]ethoxy]-2-azaspiro[3.3]heptan-2-yl]-N-[4-(3-chloro-4-cyano-phenoxy)cyclohexyl]pyridazine-3-carboxamide] | 0.1 to 1 | 1 to 10 | – |
| CC(=O)N1CCc2c(c(N3CCCc4cc(-c5ccc(CCN6CCN(c7ccc(C(=O)N[C@H]8CC[C@H](Oc9ccc(C#N)c(Cl)c9)CC8)nn7)CC6)cc5)ncc43)nn2C2CCOCC2)C1 [Compound 157, 6-[4-[2-[4-[1-(5-acetyl-1-tetrahydropyran-4-yl-6,7-dihydro-4H-pyrazolo[4,3-c]pyridin-3-yl)-3,4-dihydro-2H-1,7-naphthyridin-6-yl]phenyl]ethyl]piperazin-1-yl]-N-[4-(3-chloro-4-cyano-phenoxy)cyclohexyl]pyridazine-3-carboxamide] | 0.1 to 1 | < 1 | – |
| CC(=O)N1CCc2c(c(N3CCCc4cc(-c5ncco5)c(C(F)F)cc43)nn2C2CCN(CC3CCN(c4ccc(C(=O)N[C@H]5CC[C@H](Oc6ccc(C#N)c(Cl)c6)CC5)nn4)CC3)CC2)C1 [Compound 256, 6-[4-[[4-[5-acetyl-3-[7-(difluoromethyl)-6-oxazol-2-yl-3,4-dihydro-2H-quinolin-1-yl]-6,7-dihydro-4H-pyrazolo[4,3-c]pyridin-1-yl]-1-piperidyl]methyl]-1-piperidyl]-N-[4-(3-chloro-4-cyano-phenoxy)cyclohexyl] pyridazine-3-carboxamide] | 0.1 to 1 | < 1 | – |
| CN1C(=O)CCc2cc(-c3cccc4cc(-c5ccc(CCC6CCN(c7ccc(C(=O)N[C@H]8CC[C@H](Oc9ccc(C#N)c(Cl)c9)CC8)nn7)CC6)nc5)ncc34)ccc21 [Compound 58, N-[4-(3-chloro-4-cyano-phenoxy)cyclohexyl]-6-[4-[2-[5-[8-(1-methyl-2-oxo-3,4-dihydroquinolin-6-yl)-3-isoquinolyl]-2-pyridyl]ethyl]-1-piperidyl]pyridazine-3-carboxamide] | > 100 | 10 to 100 | – |
| CC(=O)N1CCc2c(c(N3CCCc4cc(-c5cnn(C)c5)c(C(F)F)cc43)nn2CC2CC3(CCN(c4ccc(C(=O)N[C@H]5CC[C@H](Oc6ccc(C#N)c(Cl)c6)CC5)nn4)CC3)C2)C1 [Compound 130, 6-[2-[[5-acetyl-3-[7-(difluoromethyl)-6-(1-methylpyrazol-4-yl)-3,4-dihydro-2H-quinolin-1-yl]-6,7-dihydro-4H-pyrazolo[4,3-c]pyridin-1-yl]methyl]-7-azaspiro[3.5]nonan-7-yl]-N-[4-(3-chloro-4-cyano-phenoxy)cyclohexyl]pyridazine-3-carboxamide] | 0.1 to 1 | > 100 | – |
| CC(=O)N1CCc2c(c(N3CCCc4cc(-c5cnn(C)c5)c(C(F)F)cc43)nn2C2CCC3(CC2)CC(Oc2ccc(C(=O)N[C@H]4CC[C@H](Oc5ccc(C#N)c(C(F)(F)F)c5)CC4)nn2)C3)C1 (stereo partly shown) [Compound 246, 6-[7-[5-acetyl-3-[7-(difluoromethyl)-6-(1-methylpyrazol-4-yl)-3,4-dihydro-2H-quinolin-1-yl]-6,7-dihydro-4H-pyrazolo[4,3-c]pyridin-1-yl]spiro[3.5]nonan-2-yl]oxy-N-[4-[4-cyano-3-(trifluoromethyl)phenoxy]cyclohexyl]pyridazine-3-carboxamide] | 1 to 100 | < 1 | – |
| CC(=O)N1CCc2c(c(-c3cccc4cc(-c5ccc(CCC6CCN(c7ccc(C(=O)N[C@H]8CC[C@H](Oc9ccc(C#N)c(Cl)c9)CC8)cn7)CC6)nc5)ncc34)nn2C2CCOCC2)C1 [Compound 165] | 0.1 to 1 | < 1 | – |
| CC(=O)N1CCc2c(c(N3CCCc4cc(-c5cnn(C)c5)c(C(F)F)cc43)nn2C2CCN(C(=O)CC3CCN(c4ccc(C(=O)N[C@H]5CC[C@H](N(C)c6ccc(C#N)c(Cl)c6)CC5)cc4)CC3)CC2)C1 [Compound 13, 4-[4-[2-[4-[5-acetyl-3-[7-(difluoromethyl)-6-(1-methylpyrazol-4-yl)-3,4-dihydro-2H-quinolin-1-yl]-6,7-dihydro-4H-pyrazolo[4,3-c]pyridin-1-yl]-1-piperidyl]-2-oxo-ethyl]-1-piperidyl]-N-[4-(3-chloro-4-cyano-N-methyl-anilino)cyclohexyl]benzamide] | 0.1 to 1 | – | < 1 |

Now from value to molecule, other results behind:

| IC50 (VCaP cells) [nM] | EC50 (AR / CBP ternary complex; [2]) [nM] | SMILES | EC50 (AR / CBP ternary complex; [1]) [nM] |
| --- | --- | --- | --- |
| 0.1 to 1 | 1 to 10 | CC(=O)N1CCc2c(c(-c3cccc4cc(-c5cnn(C)c5)ncc34)nn2C2CCN(CC3CCN(c4ccc(C(=O)N[C@H]5CC[C@H](Oc6ccc(C#N)c(Cl)c6)CC5)cc4)CC3)CC2)C1 [Compound 162, 4-[4-[[4-[5-acetyl-3-[3-(1-methylpyrazol-4-yl)-8-isoquinolyl]-6,7-dihydro-4H-pyrazolo[4,3-c]pyridin-1-yl]-1-piperidyl]methyl]-1-piperidyl]-N-[4-(3-chloro-4-cyano-phenoxy)cyclohexyl]benzamide] | – |
| ≤ 0.1 | < 1 | CC(=O)N1CCc2c(c(-c3cccc4cc(-c5cnn(CCOC6CCN(c7ccc(C(=O)N[C@H]8CC[C@H](Oc9ccc(C#N)c(Cl)c9)CC8)nn7)CC6)c5)ncc34)nn2C2CCOCC2)C1 [Compound 26, 6-[4-[2-[4-[8-(5-acetyl-1-tetrahydropyran-4-yl-6,7-dihydro-4H-pyrazolo[4,3-c]pyridin-3-yl)-3-isoquinolyl]pyrazol-1-yl]ethoxy]-1-piperidyl]-N-[4-(3-chloro-4-cyano-phenoxy)cyclohexyl]pyridazine-3-carboxamide] | – |
| ≤ 0.1 | < 1 | CC(=O)N1CCc2c(c(N3CCCc4cc(-c5cnn(C)c5)c(C(F)F)cc43)nn2[C@H]2CC[C@@H](CN3CCN(c4ccc(C(=O)N[C@H]5CC[C@H](Oc6ccc(C#N)c(Cl)c6)CC5)nn4)CC3)CC2)C1 [Compound 210, 6-[4-[[4-[5-acetyl-3-[7-(difluoromethyl)-6-(1-methylpyrazol-4-yl)-3,4-dihydro-2H-quinolin-1-yl]-6,7-dihydro-4H-pyrazolo[4,3-c]pyridin-1-yl]cyclohexyl]methyl]piperazin-1-yl]-N-[4-(3-chloro-4-cyano-phenoxy)cyclohexyl]pyridazine-3-carboxamide] | – |
| ≤ 0.1 | < 1 | COc1cc(O[C@H]2CC[C@H](NC(=O)c3ccc(N4CCC(C(=O)N5CCC(n6nc(N7CCCc8cc(-c9cnn(C)c9)c(C(F)F)cc87)c7c6CCN(C(C)=O)C7)CC5)CC4)cc3)CC2)ccc1C#N [Compound 160, 4-[4-[4-[5-acetyl-3-[7-(difluoromethyl)-6-(1-methylpyrazol-4-yl)-3,4-dihydro-2H-quinolin-1-yl]-6,7-dihydro-4H-pyrazolo[4,3-c]pyridin-1-yl]piperidine-1-carbonyl]-1-piperidyl]-N-[4-(4-cyano-3-methoxy-phenoxy)cyclohexyl]benzamide] | – |
| ≤ 0.1 | < 1 | CC(=O)N1CCc2c(c(N3CCCc4cc(-c5cnn(C)c5)c(C)cc43)nn2C2CCN(C3CCC4(CC3)CN(c3ccc(C(=O)N[C@H]5CC[C@H](Oc6ccc(C#N)c(Cl)c6C)CC5)nn3)C4)CC2)C1 [Compound 300, 6-[7-[4-[5-acetyl-3-[7-methyl-6-(1-methylpyrazol-4-yl)-3,4-dihydro-2H-quinolin-1-yl]-6,7-dihydro-4H-pyrazolo[4,3-c]pyridin-1-yl]-1-piperidyl]-2-azaspiro[3.5]nonan-2-yl]-N-[4-(3-chloro-4-cyano-2-methyl-phenoxy)cyclohexyl]pyridazine-3-carboxamide] | – |
| ≤ 0.1 | < 1 | CC(=O)N1CCc2c(c(N3CCCc4cc(-c5cnn(C)c5)c(C)cc43)nn2C2CCN(CC3CCN(c4ccc(C(=O)N[C@H]5CC[C@H](Oc6ccc(C#N)c(Cl)c6C)CC5)nn4)CC3(C)C)CC2)C1 (stereo partly shown) [Compound 291, 6-[4-[[4-[5-acetyl-3-[7-methyl-6-(1-methylpyrazol-4-yl)-3,4-dihydro-2H-quinolin-1-yl]-6,7-dihydro-4H-pyrazolo[4,3-c]pyridin-1-yl]-1-piperidyl]methyl]-3,3-dimethyl-1-piperidyl]-N-[4-(3-chloro-4-cyano-2-methyl-phenoxy)cyclohexyl]pyridazine-3-carboxamide] | – |
| ≤ 0.1 | < 1 | CC(=O)N1CCc2c(c(N3CCCc4cc(-c5ccc(N6CC(N7CCN(c8ccc(C(=O)N[C@H]9CC[C@H](Oc%10ccc(C#N)c(Cl)c%10)CC9)nn8)CC7)C6)nc5)c(C(F)F)cc43)nn2C2CCOCC2)C1 [Compound 216] | – |
| ≤ 0.1 | < 1 | CC(=O)N1CCc2c(c(-c3cccc4cc(-c5cnn(C)c5)ncc34)nn2C2CN(CC3CCN(c4ccc(C(=O)N[C@H]5CC[C@H](Oc6ccc(C#N)c(Cl)c6)CC5)nn4)CC3)C2)C1 [Compound 4, 6-[4-[[3-[5-acetyl-3-[3-(1-methylpyrazol-4-yl)-8-isoquinolyl]-6,7-dihydro-4H-pyrazolo[4,3-c]pyridin-1-yl]azetidin-1-yl]methyl]-1-piperidyl]-N-[4-(3-chloro-4-cyano-phenoxy)cyclohexyl]pyridazine-3-carboxamide] | – |
